# Results taken from ChEMBL document CHEMBL1201862, “PubChem BioAssay data set” (2004).
# The source made the active and inactive calls.
# Key:
# [1] = Dd2 parasite growth inhibition in erythrocytes – SYBR Green, dry powder samples, set 9, dose response (AID 1159568); format: functional, cell-based
# [2] = biological target: RNA-editing ligase 1, mitochondrial (Trypanosoma brucei brucei, UniProt P86926); test: inhibition of trypanosome RNA editing ligase – biochemical, fluorescence, Trypanosoma brucei, dose response (AID 1117295); format: functional
# [3] = viability loss in Vero cells – cytotoxicity control for Vif-APOBEC3G degradation inhibitor project, dose response (AID 1117358); format: functional; conditions: Vero
# [4] = biological target: Voltage-gated inwardly rectifying potassium channel KCNH2 (Homo sapiens, UniProt Q12809); test: concentration-dependent hERG rescue from blockers – cell-based, thallium flux, dose response (AID 2121); format: ADME
# [5] = biological target: T1, Tyrosine-protein phosphatase non-receptor type 7 (Homo sapiens, UniProt P35236); test: HePTP tyrosine phosphatase activity blockers – biochemical, absorbance, leukemia target, primary screen (AID 521); format: functional
# T1 sequence (P35236 whole entry): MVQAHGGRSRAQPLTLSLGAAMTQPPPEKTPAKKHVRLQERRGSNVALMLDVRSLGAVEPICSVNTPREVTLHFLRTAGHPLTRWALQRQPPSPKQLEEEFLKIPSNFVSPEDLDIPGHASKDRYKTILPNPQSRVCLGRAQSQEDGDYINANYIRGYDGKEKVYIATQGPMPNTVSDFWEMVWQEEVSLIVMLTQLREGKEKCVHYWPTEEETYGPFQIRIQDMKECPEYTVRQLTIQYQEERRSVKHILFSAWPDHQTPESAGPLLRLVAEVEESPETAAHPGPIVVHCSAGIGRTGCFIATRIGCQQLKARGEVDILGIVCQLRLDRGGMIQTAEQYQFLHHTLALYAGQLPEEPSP
# [6] = test system: Danio rerio; test: In Vivo Angiogenesis Dose-Response Confirmation. [Related pubchem assays: 732 (Assay preceding this confirmatory assay.)]; format: functional, organism-based
# [7] = test system: Vero; test: mammalian cell viability reduction – secondary assay, cytotoxicity control for West Nile virus antiviral project, dose response (AID 1650); format: functional; conditions: Chlorocebus sabaeus
# [8] = test system: Vero; test: inhibition of WNV-induced cytopathic effect – cell-based, CPE readout (AID 1621); format: functional; conditions: Chlorocebus sabaeus
# [9] = biological target: Voltage-dependent T-type calcium channel subunit alpha-1H (Homo sapiens, UniProt O95180); format: functional;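 also: channel activity triggered by adding a high calcium stimulation buffer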
# [10] = biological target: Ubiquitin carboxyl-terminal hydrolase BAP1 (Homo sapiens, UniProt Q92560); test: inhibition of BAP1 ubiquitin hydrolase activity – biochemical, dose response (AID 714); format: functional
# [11] = IC50 of insulin release inhibition, rat insulinoma INS-1E line, 5 mM glucose, cell-based (AID 1117331); format: functional
# [12] = glucagon-like peptide-1 release potency in STC-1, concentration-response, half-maximal inhibitory concentration in the STC-1 line (AID 1117345); format: functional, cell-based
# [13] = Potency on glucagon-like peptide 1 release, dose-response in NCI-H716 cell line, half maximal inhibitory concentration (AID 1117344); format: functional, cell-based
# [14] = biological target: Eukaryotic translation initiation factor 4E (Mus musculus, UniProt P63073); test: blockers of eIF4G binding by eIF4E – biochemical, TR-FRET, dose response (AID 855); format: functional;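 also: potency for disrupting eIF4E binding to eIF4GI seen as loss of FRET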
# [15] = biological target: T2, Estrogen receptor beta (Homo sapiens, UniProt Q92731); test: blockers of SRC-3 recruitment to ERβ – biochemical, ELISA, streptavidin-HRP readout, orthogonal assay, confirmation (AID 1060)
# [16] = biological target: Genome polyprotein (Hepatitis C virus, UniProt Q2Q167); test: disruption of hepatitis C core self-association – biochemical, TR-FRET, dose response (AID 2159); design: species or system Hepacivirus hominis;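 also: blocks dimerization of HCV core protein measured by TR-FRET between tagged core106 pairs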
# [17] = biological target: T3, Dual specificity protein phosphatase 6 (Rattus norvegicus, UniProt Q64346); test: inhibition of rat DUSP6 enzyme activity – biochemical, in vitro, primary screen (AID 425)
# T3 sequence (Q64346 whole entry): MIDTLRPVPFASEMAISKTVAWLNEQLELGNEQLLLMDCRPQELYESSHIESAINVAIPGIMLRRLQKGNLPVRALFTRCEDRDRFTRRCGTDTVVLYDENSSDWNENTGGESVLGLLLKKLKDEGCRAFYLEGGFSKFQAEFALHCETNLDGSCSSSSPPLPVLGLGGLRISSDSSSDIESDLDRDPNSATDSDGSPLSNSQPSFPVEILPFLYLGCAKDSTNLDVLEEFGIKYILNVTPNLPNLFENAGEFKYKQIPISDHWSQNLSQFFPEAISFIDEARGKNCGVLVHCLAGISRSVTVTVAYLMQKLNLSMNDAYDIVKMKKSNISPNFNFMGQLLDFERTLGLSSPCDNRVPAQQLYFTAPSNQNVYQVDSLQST
# [18] = biological target: T2, Estrogen receptor beta
# [19] = biological target: T4, Estrogen receptor (Homo sapiens, UniProt P03372);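 also: potency for inhibiting coactivator peptide recruitment to the receptor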
# T4 sequence (P03372 whole entry): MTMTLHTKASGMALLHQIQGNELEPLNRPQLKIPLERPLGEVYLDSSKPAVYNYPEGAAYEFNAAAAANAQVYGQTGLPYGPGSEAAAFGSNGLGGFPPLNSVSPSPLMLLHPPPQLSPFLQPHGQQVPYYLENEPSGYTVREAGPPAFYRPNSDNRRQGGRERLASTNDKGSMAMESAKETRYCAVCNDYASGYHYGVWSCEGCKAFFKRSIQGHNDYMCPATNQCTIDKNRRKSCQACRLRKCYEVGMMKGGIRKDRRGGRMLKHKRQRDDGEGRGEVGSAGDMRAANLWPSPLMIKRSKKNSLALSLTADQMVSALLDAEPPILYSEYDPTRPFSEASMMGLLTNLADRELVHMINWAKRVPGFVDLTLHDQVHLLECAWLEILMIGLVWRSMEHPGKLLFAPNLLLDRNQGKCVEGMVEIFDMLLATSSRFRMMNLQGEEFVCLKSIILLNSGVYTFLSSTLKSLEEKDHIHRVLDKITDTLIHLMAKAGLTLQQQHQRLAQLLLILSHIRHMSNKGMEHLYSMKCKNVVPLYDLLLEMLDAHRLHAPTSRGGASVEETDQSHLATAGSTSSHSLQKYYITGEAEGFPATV
# [20] = biological target: T5, Carboxy-terminal domain RNA polymerase II polypeptide A small phosphatase 1 (Homo sapiens, UniProt Q9GZU7); test: CTDSP1 inhibitors, concentration-response, biochemical, absorbance readout, ultra-high-throughput screen actives (AID 540297); format: functional
# T5 sequence (Q9GZU7 whole entry): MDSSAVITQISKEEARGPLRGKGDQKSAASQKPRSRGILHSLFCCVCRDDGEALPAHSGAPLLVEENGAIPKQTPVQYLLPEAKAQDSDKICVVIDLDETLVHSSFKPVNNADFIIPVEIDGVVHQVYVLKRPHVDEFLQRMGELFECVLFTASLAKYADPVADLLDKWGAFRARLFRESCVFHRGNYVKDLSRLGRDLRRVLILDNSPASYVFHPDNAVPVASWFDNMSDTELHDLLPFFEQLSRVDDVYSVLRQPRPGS
# [21] = test system: Saccharomyces cerevisiae; test: S. cerevisiae Caspase-1/ASC signal blockers IC50, NALP1 inhibitor project selectivity test (AID 488863); format: functional, organism-based
# [22] = HIV-1 Vif–A3G interaction blockers – biochemical, TR-FRET, GST-Vif 1-94, biotin-A3G peptide, dose response retest, primary screen (AID 1117319); format: functional;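 also: TR-FRET signal of purified GST-Vif binding a biotinylated A3G peptide; inhibitors lower the FRET signal by blocking Vif and A3G binding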
# [23] = biological target: NACHT, LRR and PYD domains-containing protein 1 (Homo sapiens, UniProt Q9C000); test: NALP1 inhibitors in yeast, dose response, luminescent (AID 488860); format: functional
# [24] = biological target: G-protein coupled receptor 183 (Homo sapiens, UniProt P32249); test: SAR confirmation of small molecule antagonists of the EBI2 receptor via a luminescent beta-arrestin assa.; format: functional
# [25] = biological target: T6, Rac GTPase-activating protein 1 (Homo sapiens, UniProt Q9H0H5); test: blockers of MgcRacGAP-driven Rac1 GTP hydrolysis – biochemical, ADP Hunter fluorescence, primary and confirmatory, confirmation (AID 624330); format: functional
# T6 sequence (Q9H0H5 whole entry): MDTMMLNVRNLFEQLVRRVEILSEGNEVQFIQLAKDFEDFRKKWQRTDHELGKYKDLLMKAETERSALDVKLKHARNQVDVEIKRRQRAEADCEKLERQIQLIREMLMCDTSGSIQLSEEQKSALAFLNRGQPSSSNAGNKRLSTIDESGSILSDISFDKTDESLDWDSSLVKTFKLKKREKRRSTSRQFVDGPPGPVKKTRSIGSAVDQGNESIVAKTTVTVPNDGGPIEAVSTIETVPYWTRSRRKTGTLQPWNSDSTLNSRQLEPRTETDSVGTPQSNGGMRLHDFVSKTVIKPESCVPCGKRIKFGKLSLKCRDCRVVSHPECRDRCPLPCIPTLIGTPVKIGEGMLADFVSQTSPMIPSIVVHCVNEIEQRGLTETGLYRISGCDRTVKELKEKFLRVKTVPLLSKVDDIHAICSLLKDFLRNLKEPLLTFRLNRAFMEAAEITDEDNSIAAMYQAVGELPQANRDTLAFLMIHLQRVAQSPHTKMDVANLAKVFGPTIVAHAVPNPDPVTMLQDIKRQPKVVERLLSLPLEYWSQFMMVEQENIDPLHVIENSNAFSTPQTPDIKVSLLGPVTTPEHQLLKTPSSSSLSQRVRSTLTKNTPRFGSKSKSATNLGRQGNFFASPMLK
# [26] = test system: CHO; test: CHO cell viability loss, potency – luminescence, cytotoxicity control for TLR9-MyD88 binding inhibitor project, dose response (AID 588339); format: functional, cell-based, hamster; conditions: Cricetulus griseus;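 also: CHO cells stably coexpressing TLR9 and MyD88 fusions from primary screen; compound exposure lasted 48 hours before viability readout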
# [27] = biological target: Glutathione-S-transferase (Schistosoma japonicum, UniProt Q26513); test: GST-antibody interaction or FRET quenching – biochemical, TR-FRET, artefact control for Vif-APOBEC3G degradation inhibitor project, dose response (AID 1117362); format: functional
# [28] = biological target: Nonstructural protein 1 (Influenza A virus, UniProt Q194T2); format: functional, Influenza A virus (A/California/07/2009(H1N1))
# [29] = viability loss in HeLa cells – cytotoxicity control for MgcRacGAP inhibitor project, dose response (AID 624300); format: functional
# [30] = biological target: Genome polyprotein (dengue virus type 2, UniProt P29990); test: flavivirus cap methylation enzyme inhibition – biochemical, confirmation dose response, primary screen (AID 588689); format: functional
# [31] = biological target: Glucose-6-phosphate 1-dehydrogenase (Homo sapiens, UniProt P11413); test: inhibition of Homo sapiens G6PD, dose series – biochemical, fluorescence, selectivity assay for P. falciparum G6PD inhibitor project, dose response (AID 504792); format: functional
# [32] = biological target: Beta Lactamase (Pseudomonas aeruginosa, UniProt Q932Y6); test: BLA reporter interference, concentration series – BLA reporter cells, FRET fluorescence, artefact control for TLR9-MyD88 binding inhibitor project, dose response (AID 588341); format: cell-based;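 also: cell based assay in CHO-K1 cells stably expressing beta-lactamase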
# [33] = test system: Vero; test: viability of Vero cells under compound – cytotoxicity control for flavivirus capping enzyme inhibitors (AID 588742); format: functional; conditions: Chlorocebus sabaeus
# [34] = viability loss in THP-1 monocytes – THP-1 cells, cytotoxicity control for Vif-APOBEC3G degradation inhibitor project, dose response (AID 1117359); format: functional; conditions: THP-1
# [35] = biological target: Heat shock protein HSP 90-alpha (Homo sapiens, UniProt P07900); format: functional, organism-based
# T2 sequence (Q92731 whole entry): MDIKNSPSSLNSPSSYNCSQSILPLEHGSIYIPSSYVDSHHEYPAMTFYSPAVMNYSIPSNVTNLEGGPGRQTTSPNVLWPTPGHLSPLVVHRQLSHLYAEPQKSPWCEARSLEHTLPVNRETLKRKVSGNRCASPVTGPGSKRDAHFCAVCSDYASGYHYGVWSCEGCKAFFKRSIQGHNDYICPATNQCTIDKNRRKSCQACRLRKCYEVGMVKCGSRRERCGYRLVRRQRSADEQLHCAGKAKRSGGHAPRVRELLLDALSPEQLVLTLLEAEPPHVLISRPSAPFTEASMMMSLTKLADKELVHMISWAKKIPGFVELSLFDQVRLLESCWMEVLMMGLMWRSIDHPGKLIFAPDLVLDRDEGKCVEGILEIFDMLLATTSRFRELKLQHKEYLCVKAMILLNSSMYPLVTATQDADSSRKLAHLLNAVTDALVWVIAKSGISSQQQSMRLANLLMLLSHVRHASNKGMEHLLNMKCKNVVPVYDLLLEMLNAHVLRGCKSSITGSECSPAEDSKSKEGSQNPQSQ
# RNA-editing ligase 1, mitochondrial, sequence (P86926 whole entry): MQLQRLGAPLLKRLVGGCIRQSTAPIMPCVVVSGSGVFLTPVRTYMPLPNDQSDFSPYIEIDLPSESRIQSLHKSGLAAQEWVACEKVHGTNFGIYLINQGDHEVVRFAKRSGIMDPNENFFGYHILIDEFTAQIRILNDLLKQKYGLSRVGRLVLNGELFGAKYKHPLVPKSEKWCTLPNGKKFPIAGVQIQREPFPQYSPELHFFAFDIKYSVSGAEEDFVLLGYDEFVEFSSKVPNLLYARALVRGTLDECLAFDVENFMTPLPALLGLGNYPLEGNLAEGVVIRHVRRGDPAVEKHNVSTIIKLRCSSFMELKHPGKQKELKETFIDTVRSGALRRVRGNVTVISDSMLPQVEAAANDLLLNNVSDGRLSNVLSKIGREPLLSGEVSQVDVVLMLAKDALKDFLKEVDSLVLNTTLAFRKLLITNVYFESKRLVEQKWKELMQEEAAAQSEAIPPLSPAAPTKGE
# Nonstructural protein 1, sequence (Q194T2 whole entry): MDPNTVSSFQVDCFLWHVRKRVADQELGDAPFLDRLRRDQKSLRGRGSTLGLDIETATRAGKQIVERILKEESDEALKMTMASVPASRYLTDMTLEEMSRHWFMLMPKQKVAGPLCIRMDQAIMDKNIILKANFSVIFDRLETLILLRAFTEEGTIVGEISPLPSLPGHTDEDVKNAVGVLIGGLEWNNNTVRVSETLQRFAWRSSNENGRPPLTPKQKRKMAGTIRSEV
# Beta Lactamase, sequence (Q932Y6 whole entry): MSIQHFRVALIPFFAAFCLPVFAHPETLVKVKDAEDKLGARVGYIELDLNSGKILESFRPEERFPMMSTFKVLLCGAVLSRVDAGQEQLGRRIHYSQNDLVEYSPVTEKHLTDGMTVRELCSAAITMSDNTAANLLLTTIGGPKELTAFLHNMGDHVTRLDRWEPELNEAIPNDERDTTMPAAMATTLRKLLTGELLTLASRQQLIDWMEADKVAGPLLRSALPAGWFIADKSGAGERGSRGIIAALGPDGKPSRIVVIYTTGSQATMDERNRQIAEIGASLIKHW
# NACHT, LRR and PYD domains-containing protein 1, sequence (Q9C000 1-1212 limits assumed): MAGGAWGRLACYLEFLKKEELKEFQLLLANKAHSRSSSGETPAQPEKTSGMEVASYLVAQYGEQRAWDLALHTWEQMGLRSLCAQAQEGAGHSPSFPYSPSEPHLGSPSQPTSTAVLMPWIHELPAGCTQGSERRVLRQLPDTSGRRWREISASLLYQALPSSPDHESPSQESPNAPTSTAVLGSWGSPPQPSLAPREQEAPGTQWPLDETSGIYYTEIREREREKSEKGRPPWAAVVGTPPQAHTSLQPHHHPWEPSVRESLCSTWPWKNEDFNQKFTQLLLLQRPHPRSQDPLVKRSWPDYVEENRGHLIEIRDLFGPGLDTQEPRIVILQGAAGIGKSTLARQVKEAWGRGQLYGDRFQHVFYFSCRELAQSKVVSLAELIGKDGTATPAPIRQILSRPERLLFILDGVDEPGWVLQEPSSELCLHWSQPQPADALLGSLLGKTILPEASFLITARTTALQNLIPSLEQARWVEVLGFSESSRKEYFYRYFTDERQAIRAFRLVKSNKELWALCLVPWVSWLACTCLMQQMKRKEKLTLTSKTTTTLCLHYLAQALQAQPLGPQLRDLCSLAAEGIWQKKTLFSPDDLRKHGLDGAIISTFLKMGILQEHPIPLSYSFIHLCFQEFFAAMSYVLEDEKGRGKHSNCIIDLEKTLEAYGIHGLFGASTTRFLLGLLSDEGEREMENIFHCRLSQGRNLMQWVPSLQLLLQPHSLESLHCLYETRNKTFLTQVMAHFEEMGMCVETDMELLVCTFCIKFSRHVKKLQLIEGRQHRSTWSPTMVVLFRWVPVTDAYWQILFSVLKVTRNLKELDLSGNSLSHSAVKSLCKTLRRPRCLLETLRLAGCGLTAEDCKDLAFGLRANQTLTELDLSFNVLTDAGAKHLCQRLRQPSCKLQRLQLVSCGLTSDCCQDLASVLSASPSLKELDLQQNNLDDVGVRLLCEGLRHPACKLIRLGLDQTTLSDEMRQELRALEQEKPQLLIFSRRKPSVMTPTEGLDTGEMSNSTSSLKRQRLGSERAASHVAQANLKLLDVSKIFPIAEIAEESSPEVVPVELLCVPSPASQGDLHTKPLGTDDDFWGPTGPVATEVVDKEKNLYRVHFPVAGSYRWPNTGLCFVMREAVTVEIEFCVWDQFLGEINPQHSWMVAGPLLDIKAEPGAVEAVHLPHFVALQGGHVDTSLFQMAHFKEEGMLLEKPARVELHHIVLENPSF
# NACHT, LRR and PYD domains-containing protein 1, sequence (Q9C000 1213-1473 limits assumed): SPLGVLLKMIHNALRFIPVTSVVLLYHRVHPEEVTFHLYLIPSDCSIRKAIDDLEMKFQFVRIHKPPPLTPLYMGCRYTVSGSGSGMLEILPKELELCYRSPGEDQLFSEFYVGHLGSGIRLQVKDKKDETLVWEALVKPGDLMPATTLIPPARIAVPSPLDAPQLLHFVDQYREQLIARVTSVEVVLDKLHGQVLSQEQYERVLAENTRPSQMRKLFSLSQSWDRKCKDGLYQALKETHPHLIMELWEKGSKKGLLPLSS
# Ubiquitin carboxyl-terminal hydrolase BAP1, sequence (Q92560 whole entry): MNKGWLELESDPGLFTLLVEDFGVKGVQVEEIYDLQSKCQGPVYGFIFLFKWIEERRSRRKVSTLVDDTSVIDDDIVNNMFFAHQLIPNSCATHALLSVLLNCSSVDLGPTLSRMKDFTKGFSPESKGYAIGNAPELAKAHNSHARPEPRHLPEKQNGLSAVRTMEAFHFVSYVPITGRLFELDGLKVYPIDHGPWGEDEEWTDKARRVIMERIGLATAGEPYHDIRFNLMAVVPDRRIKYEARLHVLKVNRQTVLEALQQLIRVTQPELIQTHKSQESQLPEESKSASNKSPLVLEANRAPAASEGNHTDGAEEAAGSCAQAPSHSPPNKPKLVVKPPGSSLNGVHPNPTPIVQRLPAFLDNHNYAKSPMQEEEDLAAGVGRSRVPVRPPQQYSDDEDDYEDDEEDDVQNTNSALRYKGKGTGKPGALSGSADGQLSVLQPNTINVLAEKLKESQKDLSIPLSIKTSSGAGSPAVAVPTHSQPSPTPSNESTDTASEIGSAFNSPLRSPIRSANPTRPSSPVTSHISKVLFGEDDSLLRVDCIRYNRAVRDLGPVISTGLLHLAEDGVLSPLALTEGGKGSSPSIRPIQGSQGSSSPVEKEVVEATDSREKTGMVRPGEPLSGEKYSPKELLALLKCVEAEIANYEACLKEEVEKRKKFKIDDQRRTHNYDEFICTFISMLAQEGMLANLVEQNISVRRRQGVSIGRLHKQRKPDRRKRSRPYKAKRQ
# Glucose-6-phosphate 1-dehydrogenase, sequence (P11413 whole entry): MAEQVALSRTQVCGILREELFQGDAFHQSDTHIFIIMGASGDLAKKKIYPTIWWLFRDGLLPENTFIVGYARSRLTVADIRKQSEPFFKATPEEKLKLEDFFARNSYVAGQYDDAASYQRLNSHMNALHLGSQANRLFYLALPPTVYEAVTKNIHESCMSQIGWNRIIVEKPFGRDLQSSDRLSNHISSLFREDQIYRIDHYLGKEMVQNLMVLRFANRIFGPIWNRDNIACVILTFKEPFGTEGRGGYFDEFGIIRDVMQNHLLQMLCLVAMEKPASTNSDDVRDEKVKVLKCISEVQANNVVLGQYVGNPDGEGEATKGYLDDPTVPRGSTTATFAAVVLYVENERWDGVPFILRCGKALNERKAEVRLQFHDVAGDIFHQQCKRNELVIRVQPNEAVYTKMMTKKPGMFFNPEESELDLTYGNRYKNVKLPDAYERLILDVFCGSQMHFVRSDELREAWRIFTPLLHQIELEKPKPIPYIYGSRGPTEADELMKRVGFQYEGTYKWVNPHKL
# G-protein coupled receptor 183, sequence (P32249 whole entry): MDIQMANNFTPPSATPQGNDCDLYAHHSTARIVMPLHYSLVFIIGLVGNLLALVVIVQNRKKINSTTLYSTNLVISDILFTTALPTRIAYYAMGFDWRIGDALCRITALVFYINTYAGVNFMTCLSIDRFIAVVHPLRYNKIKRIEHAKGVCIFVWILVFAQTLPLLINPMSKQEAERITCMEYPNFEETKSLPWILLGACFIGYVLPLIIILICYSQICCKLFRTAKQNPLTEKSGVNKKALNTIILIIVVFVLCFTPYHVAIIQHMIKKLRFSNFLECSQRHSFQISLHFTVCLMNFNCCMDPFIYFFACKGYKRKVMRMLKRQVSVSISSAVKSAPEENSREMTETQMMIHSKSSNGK
# Eukaryotic translation initiation factor 4E, sequence (P63073 whole entry): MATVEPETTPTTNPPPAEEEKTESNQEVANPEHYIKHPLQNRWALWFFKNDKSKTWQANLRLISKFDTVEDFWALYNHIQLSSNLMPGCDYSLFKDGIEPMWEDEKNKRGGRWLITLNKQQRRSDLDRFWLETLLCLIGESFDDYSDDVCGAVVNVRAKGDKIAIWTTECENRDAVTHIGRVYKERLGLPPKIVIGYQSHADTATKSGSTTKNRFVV
# Genome polyprotein (Hepatitis C virus, UniProt Q2Q167), sequence (Q2Q167 whole entry): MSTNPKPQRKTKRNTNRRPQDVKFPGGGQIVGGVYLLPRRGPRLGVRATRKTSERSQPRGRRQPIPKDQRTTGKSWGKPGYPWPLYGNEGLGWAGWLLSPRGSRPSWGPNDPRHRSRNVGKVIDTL
compound,measurement,setting,value
CC(C)CC#Cc1ccc([C@@H]2[C@H]3CN(C(=O)Nc4ccccc4)CCCCN3[C@H]2CO)cc1,AC50,[1],2.67 µM (active)
COC(=O)C1=C(C)N(Cc2cccc(C(F)(F)F)c2)C(NCc2ccc(C(F)(F)F)cc2)=NC1c1ccccc1C(F)(F)F (stereo not given),IC50,[2],> 96.6 µM (inactive)
N=c1sccn1CC(=O)Nc1ccc2c(c1)CCC2,CC50,[3],> 40 µM (active)
CCc1ccc2nc(NC(=O)c3cc(C)on3)sc2c1,EC50,[4],11.6 µM (active)
Cc1nc2c(o1)CCc1ccccc1C2O (stereo not given),IC50,[5],> 100 µM (not active)
O=C1Nc2c(Cl)cc(Cl)cc2/C1=C1/Nc2ccccc2C1=O,IC50,[6],4.24 µM (active)
COc1ccc(C2c3ccc4ccccc4c3Oc3ncn(CCCO)c(=N)c32)cc1OC (stereo not given),CC50,[7],19.7 µM (active)
same,IC50,[8],21.5 µM (active)
CC(=O)N1CCN(c2ccccc2NC(=O)COc2cc(C)ccc2C(C)C)CC1,EC50,[9],3.67 µM (active)
same,IC50,[10],36.7 µM (not active)
O=C(O)C1CCC1,IC50,[11],> 33.3 µM (inactive)
same,IC50,[12],> 40 µM (inactive)
same,IC50,[13],> 40 µM (inactive)
O=C1Nc2ccccc2SC(c2ccccc2)C1O (stereo not given),IC50,[14],35.4 µM (inactive)
same,IC50,[15],0.161 µM (not active)
same,IC50,[16],> 49.8 µM (not active)
same,IC50,[17],> 10 µM (not active)
same,IC50,[18],< 1.56 µM (active)
same,IC50,[19],3.02 µM (active)
same,IC50,[20],5.33 µM (active)
Cc1sc(-c2ccncc2)nc1OC(=O)c1ccccc1,IC50,[21],56.9 µM (active)
same,IC50,[22],> 100 µM (active)
same,IC50,[23],23.1 µM (active)
O=C(/C=C/c1ccc(Br)cc1)N1CCN(Cc2ccc(Cl)c(Cl)c2)CC1,IC50,[24],0.00172 µM (active)
CCN(CC)c1ccc(C(=C2C=CC(=[N+](CC)CC)C=C2)c2ccccc2)cc1,IC50,[25],9.8 µM (active)
same,IC50,[26],0.181 µM (active)
same,IC50,[27],25.3 µM (active)
same,IC50,[28],10.4 µM (active)
same,CC50,[29],0.823 µM (active)
same,IC50,[30],24.9 µM (active)
same,IC50,[31],> 80 µM (inactive)
same,IC50,[32],4.75 µM (active)
same,CC50,[33],0.27 µM (active)
same,CC50,[34],0.1 µM (active)
same,AC50,[35],0.754 µM (active)
